Source: ChEMBL document CHEMBL1130778, “The synthesis and evaluation of cyclic ureas as HIV protease inhibitors: modifications of the P1/P1' residues” (Bioorg Med Chem Lett, 1998)

Key:
[1] = target: Human immunodeficiency virus type 1 protease (Human immunodeficiency virus 1, UniProt Q72874); experiment: HIV protease inhibition.
[2] = system: Human immunodeficiency virus 1; experiment: Whole cell antiviral activity.; type: functional

SMILES	Ki [1] [nM]	IC90 [2] [nM]
CNCCOc1ccc(C[C@@H]2[C@H](O)[C@@H](O)[C@@H](Cc3ccc(OCCNC)cc3)N(Cc3ccccc3)C(=O)N2Cc2ccccc2)cc1	1.6	800
Nc1cccc(CN2C(=O)N(Cc3cccc(N)c3)[C@H](Cc3ccccc3)[C@H](O)[C@@H](O)[C@H]2Cc2ccccc2)c1 [MOZENAVIR]		126
O=C1N(Cc2cccc(-c3cc[nH]n3)c2)[C@H](Cc2ccc(OCCN3CCOCC3)cc2)[C@H](O)[C@@H](O)[C@@H](Cc2ccc(OCCN3CCOCC3)cc2)N1Cc1cccc(-c2cc[nH]n2)c1	0.13	1030
O=C1N(Cc2cccc(-c3cc[nH]n3)c2)[C@H](Cc2ccccc2)[C@H](O)[C@@H](O)[C@@H](Cc2ccccc2)N1Cc1cccc(-c2cc[nH]n2)c1		56
O=C1N(Cc2cccc(-c3cc[nH]n3)c2)[C@H](Cc2ccc(OCc3cccnc3)cc2)[C@H](O)[C@@H](O)[C@@H](Cc2ccc(OCc3cccnc3)cc2)N1Cc1cccc(-c2cc[nH]n2)c1	0.059	32
O=C1N(Cc2ccccc2)[C@H](Cc2ccc(OCCO)cc2)[C@H](O)[C@@H](O)[C@@H](Cc2ccc(OCCO)cc2)N1Cc1ccccc1	0.76	78
O=C1N(Cc2ccccc2)[C@H](Cc2ccc(OCc3ccncc3)cc2)[C@H](O)[C@@H](O)[C@@H](Cc2ccc(OCc3ccncc3)cc2)N1Cc1ccccc1	0.84	100
O=C1N(Cc2ccccc2)[C@H](Cc2ccc(OCCN3CCOCC3)cc2)[C@H](O)[C@@H](O)[C@@H](Cc2ccc(OCCN3CCOCC3)cc2)N1Cc1ccccc1	5.9	230
COc1ccc(C[C@@H]2[C@H](O)[C@@H](O)[C@@H](Cc3ccc(OC)cc3)N(Cc3cccc(-c4cc[nH]n4)c3)C(=O)N2Cc2cccc(-c3cc[nH]n3)c2)cc1	0.078	10
O=C1N(Cc2ccccc2)[C@H](Cc2ccc(O)cc2)[C@H](O)[C@@H](O)[C@@H](Cc2ccc(O)cc2)N1Cc1ccccc1		184
O=C1N(Cc2ccccc2)[C@H](Cc2ccccc2)[C@H](O)[C@@H](O)[C@@H](Cc2ccccc2)N1Cc1ccccc1		790
COc1ccc(C[C@@H]2[C@H](O)[C@@H](O)[C@@H](Cc3ccc(OC)cc3)N(Cc3ccccc3)C(=O)N2Cc2ccccc2)cc1		600
CN(C)CCOc1ccc(C[C@@H]2[C@H](O)[C@@H](O)[C@@H](Cc3ccc(OCCN(C)C)cc3)N(Cc3cccc(-c4cc[nH]n4)c3)C(=O)N2Cc2cccc(-c3cc[nH]n3)c2)cc1	0.061	5400
O=C1N(Cc2ccc(CO)cc2)[C@H](Cc2ccccc2)[C@H](O)[C@@H](O)[C@@H](Cc2ccccc2)N1Cc1ccc(CO)cc1 [DMP-323]	0.29	91
O=C1N(Cc2cccc(-c3cc[nH]n3)c2)[C@H](Cc2ccc(OCCO)cc2)[C@H](O)[C@@H](O)[C@@H](Cc2ccc(OCCO)cc2)N1Cc1cccc(-c2cc[nH]n2)c1	0.059	462
O=C1N(Cc2cccc(-c3cc[nH]n3)c2)[C@H](Cc2ccc(O)cc2)[C@H](O)[C@@H](O)[C@@H](Cc2ccc(O)cc2)N1Cc1cccc(-c2cc[nH]n2)c1	0.016	1340
O=C1N(Cc2cccc(-c3cc[nH]n3)c2)[C@H](Cc2ccc(OCc3ccncc3)cc2)[C@H](O)[C@@H](O)[C@@H](Cc2ccc(OCc3ccncc3)cc2)N1Cc1cccc(-c2cc[nH]n2)c1	0.071	18
